In BindingDB's records for doi:10.7270/Q2SX6GDH (n/a, 1996):

How the values were obtained:
[1] = biological target: T1, 5-hydroxytryptamine receptor 3A/3B (Rattus norvegicus, UniProt P35563+Q9JJ16); experiment: (§1) Compound was tested for its ability to displace [3H]-Q-ICS 205-930 from 5-hydroxytryptamine 3 receptor in rat cortex homogenates
T1 sequence (P35563 whole entry): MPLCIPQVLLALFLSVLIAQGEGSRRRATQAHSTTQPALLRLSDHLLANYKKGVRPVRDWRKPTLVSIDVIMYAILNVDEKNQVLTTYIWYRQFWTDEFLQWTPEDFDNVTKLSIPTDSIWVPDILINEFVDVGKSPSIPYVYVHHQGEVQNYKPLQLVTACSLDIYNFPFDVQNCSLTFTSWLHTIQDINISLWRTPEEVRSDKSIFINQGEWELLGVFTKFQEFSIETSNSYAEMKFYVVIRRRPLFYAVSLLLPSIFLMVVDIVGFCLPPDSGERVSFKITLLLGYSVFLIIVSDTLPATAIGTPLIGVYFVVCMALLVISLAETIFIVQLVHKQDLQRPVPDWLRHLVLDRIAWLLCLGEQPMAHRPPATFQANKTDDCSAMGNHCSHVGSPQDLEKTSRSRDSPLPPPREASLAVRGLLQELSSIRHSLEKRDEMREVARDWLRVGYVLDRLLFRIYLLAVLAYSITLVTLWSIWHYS
T1 sequence (Q9JJ16 whole entry): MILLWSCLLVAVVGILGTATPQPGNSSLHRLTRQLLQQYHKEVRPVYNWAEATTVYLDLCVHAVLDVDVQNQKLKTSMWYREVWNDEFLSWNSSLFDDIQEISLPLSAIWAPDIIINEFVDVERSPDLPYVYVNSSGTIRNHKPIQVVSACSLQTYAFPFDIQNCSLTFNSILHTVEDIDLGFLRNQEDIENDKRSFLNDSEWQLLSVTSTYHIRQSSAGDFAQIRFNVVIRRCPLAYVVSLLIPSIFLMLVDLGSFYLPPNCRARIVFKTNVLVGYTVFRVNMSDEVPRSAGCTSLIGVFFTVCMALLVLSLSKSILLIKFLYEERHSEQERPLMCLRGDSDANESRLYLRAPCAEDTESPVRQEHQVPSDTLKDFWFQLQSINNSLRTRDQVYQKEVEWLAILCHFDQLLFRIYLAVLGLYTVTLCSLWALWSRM

[2] = biological target: T2, 5-hydroxytryptamine receptor 1D (Sus scrofa, UniProt P79400); experiment: (§2) Compound was tested for its ability to displace [3H]-5-HT binding to 5-hydroxytryptamine 1D receptor recognition sites in pig caudate membranes
[3] = biological target: 5-hydroxytryptamine receptor 2A (Rattus norvegicus, UniProt P14842); experiment: ChEBML_2582
Procedure: Compound was tested for its ability to displace [3H]DOB from 5-hydroxytryptamine 2A receptor in rat cortex homogenates

[4] = biological target: T2, 5-hydroxytryptamine receptor 1D; experiment: ChEBML_1955; procedure: as §2
[5] = Compound was tested for its ability to displace [3H]mesulergine from 5-hydroxytryptamine 2C receptor in pig cortex
[6] = Compound was tested for its ability to displace [3H]8-OH-DPAT from 5-hydroxytryptamine 1A receptor in pig cortex
[7] = Compound was tested for its ability to displace [3H]-5-HT binding to 5-hydroxytryptamine 1D receptor recognition sites in pig caudate membranes
[8] = biological target: T1, 5-hydroxytryptamine receptor 3A/3B; experiment: ChEBML_3165; procedure: as §1
[9] = biological target: T2, 5-hydroxytryptamine receptor 1D; experiment: Compound was tested for its ability to displace [125I]GTI binding to 5-hydroxytryptamine 1D receptor recognition sites in pig caudate membranes

Chain of 5-hydroxytryptamine receptor 2A (P14842 whole entry): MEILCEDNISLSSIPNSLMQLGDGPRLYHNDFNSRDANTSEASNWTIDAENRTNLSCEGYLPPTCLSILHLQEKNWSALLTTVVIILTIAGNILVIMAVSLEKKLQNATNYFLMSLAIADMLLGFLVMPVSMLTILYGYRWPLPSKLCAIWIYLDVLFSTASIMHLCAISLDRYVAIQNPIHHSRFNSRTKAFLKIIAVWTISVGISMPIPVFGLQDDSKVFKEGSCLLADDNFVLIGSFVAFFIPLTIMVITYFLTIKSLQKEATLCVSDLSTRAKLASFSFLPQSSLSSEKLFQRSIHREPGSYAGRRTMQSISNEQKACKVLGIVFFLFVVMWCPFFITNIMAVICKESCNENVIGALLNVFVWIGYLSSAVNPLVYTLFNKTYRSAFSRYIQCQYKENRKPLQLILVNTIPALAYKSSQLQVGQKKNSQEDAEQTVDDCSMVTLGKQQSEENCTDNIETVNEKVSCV
T2 sequence (P79400 whole entry): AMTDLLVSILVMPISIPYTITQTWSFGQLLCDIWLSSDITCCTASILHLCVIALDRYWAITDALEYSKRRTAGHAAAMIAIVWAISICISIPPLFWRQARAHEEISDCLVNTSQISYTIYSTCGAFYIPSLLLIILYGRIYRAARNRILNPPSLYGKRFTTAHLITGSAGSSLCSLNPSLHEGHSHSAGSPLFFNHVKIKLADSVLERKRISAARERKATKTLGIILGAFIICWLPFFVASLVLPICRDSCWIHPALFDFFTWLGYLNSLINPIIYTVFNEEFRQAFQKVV

| Structure (SMILES) | IC50 [1] [nM] | IC50 [2] [nM] | IC50 [3] [nM] | IC50 [9] [nM] | IC50 [4] [nM] | IC50 [5] [nM] | IC50 [6] [nM] | IC50 [7] [nM] | IC50 [8] [nM] |
| --- | --- | --- | --- | --- | --- | --- | --- | --- | --- |
| CN(C)CCc1c[nH]c2ccc(-n3cncn3)cc12 | – | – | – | – | – | 500 | 25 | 20 | – |
| CN(C)CCc1c[nH]c2ccc(-n3cnnc3)cc12 [Dimethyl-[2-(5-[1,2,4]triazol-4-yl-1H-indol-3-yl)-ethyl]-amine] | – | 2 | > 10000 | – | 0.43 | – | – | – | > 10000 |

Second part, led by results:

| IC50 [1] [nM] | IC50 [2] [nM] | IC50 [3] [nM] | IC50 [9] [nM] | Structure (SMILES) | IC50 [4] [nM] | IC50 [5] [nM] | IC50 [6] [nM] | IC50 [7] [nM] | IC50 [8] [nM] |
| --- | --- | --- | --- | --- | --- | --- | --- | --- | --- |
| 2700 | 8 | > 10000 | – | CN1CCC(c2c[nH]c3ccc(-n4cnnc4)cc23)CC1 | 1.2 | – | – | – | – |
| 4100 | 49 | 7200 | 16 | CN(C)CCc1c[nH]c2ccc(Cn3cncn3)cc12 [N,N-dimethyl-2-[5-(1H-1,2,4-triazol-1-ylmethyl)-1H-indol-3-yl]ethanamine] | – | – | – | – | – |
| > 10000 | – | – | – | CNS(=O)(=O)Cc1ccc2[nH]cc(CCN(C)C)c2c1 [Sumax] | – | – | – | – | – |
